Where “and” joins values, the source holds several entries; their conditions need not be identical. Identical values can stand only once. Bridge positions count the residues as written; N and C are the ends. Square brackets hold non-standard residues; d marks the D form. Ends that are not written are not given here. Peptide text beside a SMILES is read from it. I, II: the chains in the order shown. Ava = NCCCCC(=O)O; βAla = NCCC(=O)O
Legend:
Format in all cases: cell-based
[1] = system: HIV-1 NL 4-3; test: HIV-1 infection of C8166 cells (syncytia formation, p24 ELISA) with HIV-1 NL 4-3; settings: for IC50: C8166 cells, HIV-1 subtype B NL 4-3, Table 3
Experimental: (§1) HIV-1 NL 4-3 isolate (Adachi et al., 1986; Barré-Sinoussi et al., 1983) and highly cytopathic Zairian HIV-1 NDK isolate (Ellrodt et al., 1984) was propagated in permissive CEM cells (Nara et al., 1987). Uninfected CEM and C8166 (Salahuddin et al., 1983) were maintained in RPMI 1640 (R10) with ultraglutamine (cambrex, Vervier, Belgium), penicillin (100 U/ml), streptomycin (100 μg/ml), and 10% heat-inactivated fetal calf serum (Cambrex).
(§2) Samples of 3×10^5/100 μL C8166 cells were preincubated in 96-well microtiter plates in culture medium containing various concentrations of peptide. After a 1 h treatment at 37° C., 100 μl of diluted viral solution of HIV-1 was added. The cells were exposed to the virus for 1 h at 37° C. at a multiplicity of infection of 1000 TCID50 per ml. The cells were washed three times and cultured at 3×10^5/ml of R10 with the treatment in 24-well plates incubated at 37° C. C8166 culture medium was replaced at Day-4 post-infection. The treatment was permanent before virus adsorption, during virus adsorption and after infection. Assays on C8166 cells have been performed at least twice and in duplicate. Toxicity was evaluated by daily cell count and trypan-blue exclusion assay. Infection of C8166 T-cells with HIV-1 was assessed by virus-induced cytopathic effects (syncytia formation) and by quantification of cell free p24 viral protein in the culture supernatants. Measurements of HIV-1 p24^gag concentration in the culture supernatants were achieved by ELISA (ALLIANCE® HIV-1 p24 kit, Perkin Elmer, life sciences, USA).

[2] = system: HIV-1 NL 4-3; test: as above; design: key: ++, +, (+), (+)− and − represent decreasing numbers of syncitia formed; ++, +, (+), (+)− and − represent decreasing numbers of syncitia formed; ++, +, (+), (+)− and − represent decreasing numbers of syncitia formed; ++, +, (+), (+)− and − represent decreasing numbers of syncitia formed; ++, +, (+), (+)− and − represent decreasing numbers of syncitia formed; settings: Table 1
Experimental: as §1, §2

[3] = system: HIV-1 NL 4-3; test: as above; design: key: ++, +, (+), (+)− and − represent decreasing numbers of syncitia formed.; ++, +, (+), (+)− and − represent decreasing numbers of syncitia formed.; ++, +, (+), (+)− and − represent decreasing numbers of syncitia formed.; ++, +, (+), (+)− and − represent decreasing numbers of syncitia formed.; ++, +, (+), (+)− and − represent decreasing numbers of syncitia formed; settings: Table 2
Experimental: as §1, §2

[4] = system: HIV-1 NL 4-3; test: Infection of human peripheral blood lymphocytes (PBL) with NL 4-3 strain, p24 ELISA
Experimental: Peripheral blood lymphocytes from an HIV-1 negative donor were grown as described earlier, maintained in RPMI 1640 with ultraglutamine, supplemented with IL2 (20 μg/ml), penicillin (100 U/ml), streptomycin (100 μg/ml), and 10% heat-inactivated fetal calf serum. Cells were stimulated three days in the medium supplemented with phytohemagglutinin (20 U/ml PHA P, DIFCO, Detroit Mich.).
Samples of 10^6/100 μL PBL cells were preincubated in 96-well microtiter plates in culture medium containing various concentrations of peptides. After a 1 h treatment at 37° C., 100 μl of diluted viral solution of HIV-1 was added. The cells were exposed to the virus for 1 h at 37° C. at a multiplicity of infection of 1000 TCID50 per ml. The cells were washed three times and cultured at […] of medium with the treatment in 24-well plates incubated at 37° in culture medium with the peptides in 5% CO2. The treatment was permanent before virus adsorption, during virus adsorption and after infection. The PBL culture medium was replaced every 3-4 days during three weeks always in the presence of peptide. The cell viability was assessed by cell counts and trypan-blue exclusion assay. The viral production in the culture supernatant was quantified by p24 ELISA test, as described earlier. All the experiments have been done in blind-tests. Tests have been done in duplicate.

Cc1cn([C@H]2C[C@H](N=[N+]=[N-])[C@@H](CO)O2)c(=O)[nH]c1=O [AZT, reference compound]
P 24 ([1]; Day 4, 1 μM, Table 1): NEG | P 24 ([1]; Day 4, 1 μM, Table 2): NEG | P 24 ([1]; Day 7, 1 μM, Table 1): NEG | Day 4 syncitia formed ([2]; 1 μM): − | Day 5 syncitia formed ([2]; 1 μM): − | Day 6 syncitia formed ([2]; 1 μM): − | Day 7 syncitia formed ([2]; 1 μM): − | Day 4 syncitia formed ([3]; 1 μM): − | Day 5 syncitia formed ([3]; 1 μM): − | Day 6 syncitia formed ([3]; 1 μM): − | Day 7 syncitia formed ([3]; 1 μM): −

CC(C)C[C@H](NC(=O)[C@@H]1CCCN1C(=O)[C@H](CO)NC(=O)[C@H](Cc1ccc(O)cc1)NC(=O)CNC(=O)[C@H](CCC(N)=O)NC(=O)[C@@H](N)CCCNC(=N)N)C(=O)NCCCC[C@H](NC(=O)[C@H](CC(C)C)NC(=O)[C@@H]1CCCN1C(=O)[C@H](CO)NC(=O)[C@H](Cc1ccc(O)cc1)NC(=O)CNC(=O)[C@H](CCC(N)=O)NC(=O)[C@@H](N)CCCNC(=N)N)C(=O)NCCC(=O)O [RL dimer, (RQGYSPL)2-K-βA, reference compound] (I: H-RQGYSPLK[βAla]-OH / II: H-RQGYSPL; amide I:8-II:C; N-terminus assumed)
IC50 [1]: 20 nM | IC50 ([4]; PBL, NL 4-3 strain, Table 4): 10 nM | IC100 ([4]; PBL, NL 4-3 strain, Table 4): 0.1 µM

N=C(N)NCCC[C@H](N)C(=O)N[C@@H](CCC(N)=O)C(=O)NCC(=O)N[C@@H](Cc1ccc(O)cc1)C(=O)N[C@@H](CO)C(=O)NCCCC[C@H](NC(=O)[C@H](CO)NC(=O)[C@H](Cc1ccc(O)cc1)NC(=O)CNC(=O)[C@H](CCC(N)=O)NC(=O)[C@@H](N)CCCNC(=N)N)C(=O)NCCCCC(=O)O [RS dimer valeric acid, (RQGYS)2-K—NHCH2CH2CH2CH2COOH] (I: H-RQGYSK[Ava]-OH / II: H-RQGYS; amide I:6-II:C)
IC50 [1]: 50 nM

N=C(N)NCCC[C@H](N)C(=O)N[C@@H](CCC(N)=O)C(=O)NCC(=O)N[C@@H](Cc1ccc(O)cc1)C(=O)N[C@@H](CO)C(=O)NCCCCC(=O)O [RS monomer valeric acid, RQGYS-NHCH2CH2CH2CH2COOH] (H-RQGYS[Ava]-OH)
IC50 [1]: 200 nM

N=C(N)NCCC[C@H](N)C(=O)N[C@@H](CCC(N)=O)C(=O)NCC(=O)N[C@@H](Cc1ccc(O)cc1)C(=O)N[C@@H](CO)C(=O)NCCCC[C@H](NC(=O)[C@H](CO)NC(=O)[C@H](Cc1ccc(O)cc1)NC(=O)CNC(=O)[C@H](CCC(N)=O)NC(=O)[C@@H](N)CCCNC(=N)N)C(=O)NCCC(=O)O [RS, (RQGYS)2-K-βA-OH, reference compound] (I: H-RQGYSK[βAla]-OH / II: H-RQGYS; amide I:6-II:C; N-terminus assumed)
IC50 [1]: 100 nM

GPGRAF [SPC3 monomer, GPGRAF, reference compound]
IC50 [1]: > 10000 nM

RQGYSPL [RL monomer, RQGYSPL, reference compound]
IC50 [1]: 500 nM

SPC3-(ε-aminocaproic acid) [S4]
P 24 ([1]; Day 4, 0.5 μM, Table 1): 43 pg/mL and 28 pg/mL | P 24 ([1]; Day 4, 2 μM, Table 1): 17 pg/mL and 14 pg/mL | P 24 ([1]; Day 7, 0.5 μM, Table 1): 19801 pg/mL and 25000 pg/mL | P 24 ([1]; Day 7, 1 μM, Table 1): 19801 pg/mL and 21640 pg/mL | P 24 ([1]; Day 7, 2 μM, Table 1): 17872 pg/mL and 24806 pg/mL | P 24 ([1]; Day 7, 5 μM, Table 1): 21120 pg/mL and 15674 pg/mL | IC100 ([4]; on PBL): 0.5 µM | Day 4 syncitia formed ([2]; 0.5 μM): − | Day 5 syncitia formed ([2]; 0.5 μM): + | Day 6 syncitia formed ([2]; 0.5 μM): + | Day 7 syncitia formed ([2]; 0.5 μM): ++ | Day 4 syncitia formed ([2]; 1 μM): − | Day 5 syncitia formed ([2]; 1 μM): + | Day 6 syncitia formed ([2]; 1 μM): + | Day 7 syncitia formed ([2]; 1 μM): ++ | Day 4 syncitia formed ([2]; 2 μM): − | Day 5 syncitia formed ([2]; 2 μM): + | Day 6 syncitia formed ([2]; 2 μM): + | Day 7 syncitia formed ([2]; 2 μM): ++ | Day 4 syncitia formed ([2]; 5 μM): − | Day 5 syncitia formed ([2]; 5 μM): + | Day 6 syncitia formed ([2]; 5 μM): + | Day 7 syncitia formed ([2]; 5 μM): ++

SPC3-Kpam [S7]
P 24 ([1]; Day 4, 5 μM, Table 2): NEG | Day 4 syncitia formed ([3]; 1 μM): (+) | Day 5 syncitia formed ([3]; 1 μM): + | Day 6 syncitia formed ([3]; 1 μM): ++ | Day 7 syncitia formed ([3]; 1 μM): ++ | Day 4 syncitia formed ([3]; 5 μM): − | Day 5 syncitia formed ([3]; 5 μM): − | Day 6 syncitia formed ([3]; 5 μM): − and + | Day 7 syncitia formed ([3]; 5 μM): + and ++

SPC3-Penetratin [S2]
P 24 ([1]; Day 4, 0.5 μM, Table 1): NEG | P 24 ([1]; Day 4, 0.5 μM, Table 2): 2 pg/mL | P 24 ([1]; Day 4, 1 μM, Table 1): NEG | P 24 ([1]; Day 4, 1 μM, Table 2): NEG | P 24 ([1]; Day 4, 2 μM, Table 1): NEG | P 24 ([1]; Day 4, 5 μM, Table 1): NEG | P 24 ([1]; Day 7, 0.5 μM, Table 2): 115 pg/mL and 91 pg/mL | P 24 ([1]; Day 7, 1 μM, Table 1): 181 pg/mL and 245 pg/mL | IC100 ([4]; on PBL): 0.01 µM | Day 4 syncitia formed ([2]; 0.5 μM): − | Day 5 syncitia formed ([2]; 0.5 μM): − | Day 6 syncitia formed ([2]; 0.5 μM): − | Day 7 syncitia formed ([2]; 0.5 μM): + | Day 4 syncitia formed ([2]; 1 μM): − | Day 5 syncitia formed ([2]; 1 μM): − | Day 6 syncitia formed ([2]; 1 μM): − | Day 7 syncitia formed ([2]; 1 μM): − | Day 4 syncitia formed ([2]; 2 μM): − | Day 5 syncitia formed ([2]; 2 μM): − | Day 6 syncitia formed ([2]; 2 μM): − | Day 7 syncitia formed ([2]; 2 μM): − | Day 4 syncitia formed ([3]; 0.05 μM): (+) | Day 5 syncitia formed ([3]; 0.05 μM): + and ++ | Day 6 syncitia formed ([3]; 0.05 μM): ++ | Day 7 syncitia formed ([3]; 0.05 μM): ++ | Day 4 syncitia formed ([3]; 0.1 μM): (+) | Day 5 syncitia formed ([3]; 0.1 μM): + | Day 6 syncitia formed ([3]; 0.1 μM): + | Day 7 syncitia formed ([3]; 0.1 μM): ++ | Day 4 syncitia formed ([3]; 0.5 μM): − | Day 5 syncitia formed ([3]; 0.5 μM): − | Day 6 syncitia formed ([3]; 0.5 μM): − | Day 7 syncitia formed ([3]; 0.5 μM): (+) and + | Day 4 syncitia formed ([3]; 1 μM): − | Day 5 syncitia formed ([3]; 1 μM): − | Day 6 syncitia formed ([3]; 1 μM): − | Day 7 syncitia formed ([3]; 1 μM): −
